In data set [1] the target is Mtb InhA (enoyl acyl carrier protein reductase) (Mycobacterium tuberculosis, UniProt P9WGR1). Put plainly: Mtb InhA enzyme inhibition assay (fluorescence based). The format is biochemical. As for the experimental part:
Mtb InhA enzyme inhibition assay (Fluorescence based assay)
The compounds were dissolved in 100% dimethyl sulfoxide (DMSO). […] The 50μL enzyme reaction contained PIPES- 30 mM, pH 7.5, NaCl - 50 mM, 0.005% Brij-35, DTT - 2mM, and EDTA- 0.1mM. The enzyme reaction was started by the addition of […] of dodecyl CoA synthesized in-house and the depletion of NADH was followed by measuring the fluorescence of NADH kinetically in the reaction for 30min at excitation at 340nm and emission at 420nm using Tecan Saffire II reader. The concentration at which 50% inhibition in enzyme activity was observed was reported as the IC50.

For data set [2], the system named is Mtb H37Rv strain. Put plainly: Mtb H37Rv assay, resazurin microtiter-based assay (REMA). The format is cell-based, Mycobacterium tuberculosis. The conditions noted are these: REMA plate method, 90% inhibition with respect to growth control. For orientation: The colour change of resazurin is a common sign of viable cells or microbes.
Where [3] appears, read: read-out: InhA IC50, InhA 1.25 nM, 0.050 mM NADH, NADH fluorescence.

pIC50: −log10 of the molar value. In brackets after ≈: the same amount, converted by molar mass. Where two headings read alike, the source gives them in different places.

Sequence of Mtb InhA (enoyl acyl carrier protein reductase) (P9WGR1 whole entry, looked up): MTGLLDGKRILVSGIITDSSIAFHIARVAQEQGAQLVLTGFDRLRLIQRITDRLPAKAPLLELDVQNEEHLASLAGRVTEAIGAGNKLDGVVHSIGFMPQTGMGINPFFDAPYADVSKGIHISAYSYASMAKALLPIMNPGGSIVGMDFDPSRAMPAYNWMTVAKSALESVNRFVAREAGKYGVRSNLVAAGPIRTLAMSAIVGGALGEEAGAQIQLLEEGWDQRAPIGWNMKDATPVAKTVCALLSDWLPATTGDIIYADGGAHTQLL

The molecule `COc1ccc(NC(=O)Cn2nc(-c3ccncc3)n(N)c2=S)cc1` [Compound 6d, 2-(4-Amino-3-(pyridin-4-yl)-5-thioxo-4,5-dihydro-1H[1,2,4]triazol-1-yl)-N-(4-methoxyphenyl) acetamide] displayed a melting point of 256 to 258 °C. In addition, in data set [1] (setting [3]), the pIC50 is 4.97. The molecule further returned an MIC in data set [2] (Mycobacterium tuberculosis) of 25 µM (≈ 8.91 µg/mL).

Take `Nn1c(-c2ccncc2)nn(CC(=O)Nc2ccccc2)c1=S` [Compound 6a, 2-(4-Amino-3-pyridin-4-yl-5-thioxo-4,5-dihydro-[1,2,4]triazol-1-yl)-N-phenyl acetamide]: the melting point lay within 242 to 244 °C. Moreover, the pIC50 in data set [1] (setting [3]) is 6.17. In data set [2] (Mycobacterium tuberculosis), this molecule came in with a minimal inhibitory concentration (MIC) of 12.5 µM (≈ 4.08 µg/mL).

For the molecule `Nn1c(-c2ccncc2)nn(CC(=O)Nc2cccc(C(F)(F)F)c2)c1=S` [Compound 6e, 2-(4-Amino-3-(pyridin-4-yl)-5-thioxo-4,5-dihydro-1H[1,2,4]triazol-1-yl)-N-(3-trifluoromethylphenyl) acetamide], the melting point fell in the range of 242 to 244 °C. For the same molecule, the pIC50 in data set [1] (setting [3]) was 5.23. Besides, in data set [2] (Mycobacterium tuberculosis), the MIC is 12.5 µM (≈ 4.93 µg/mL).

As to `CCOc1ccc2nc(NC(=O)Cn3nc(-c4ccncc4)oc3=S)sc2c1` [Compound 7g, N-(6-ethoxybenzo[d]thiazol-2-yl)-2-(5-(pyridin-4-yl)-2-thioxo-1,3,4-oxadiazol-3(2H)-yl)acetamide], the melting point was in the range of 252 to 254 °C. Further, the pIC50 in data set [1] is below 4.00. Further, the MIC in data set [2] (Mycobacterium tuberculosis) is above 100 µM.

In turn, `Nn1c(-c2ccncc2)nn(CC(=O)Nc2ccc(Br)cc2F)c1=S` [Compound 6c, 2-(4-amino-3-(pyridin-4-yl)-5-thioxo-4,5-dihydro-1H-1,2,4-triazol-1-yl)-N-(4-bromo-2-fluorophenyl)acetamide] came in with a melting point of 276 to 278 °C. Moreover, the pIC50 in data set [1] was 5.21. In addition, it took 3.12 µM (≈ 1.32 µg/mL) to inhibit growth in data set [2] (Mycobacterium tuberculosis) (MIC).

For the molecule `Cc1cccc(NC(=O)Cn2nc(-c3ccncc3)n(N)c2=S)n1` [Compound 6p, 2-(4-Amino-(3-pyridin-4-yl)-5-thioxo-4,5-dihydro-1H[1,2,4]triazol-1-yl)-N-(6-methylpyridin-2-yl) acetamide], the melting point was 230 to 232 °C. In addition, in data set [1] (setting [3]), the pIC50 was 4.07. Moreover, 100 µM (≈ 34.1 µg/mL) was the least that counted as inhibitory in data set [2] (Mycobacterium tuberculosis) (MIC).

As to `Cc1cc(NC(=O)Cn2nc(-c3ccncc3)oc2=S)no1` [Compound 7b, N-(5-methylisoxazol-3-yl)-2-(5-(pyridin-4-yl)-2-thioxo-1,3,4-oxadiazol-3(2H)-yl)acetamide], the melting point was in the range of 232 to 234 °C. The molecule further showed a pIC50 in data set [1] of 4.62. The molecule also gave an MIC in data set [2] (Mycobacterium tuberculosis) of 50 µM (≈ 15.9 µg/mL).

On to `Cc1cccc(NC(=O)Cn2nc(-c3ccncc3)n(N)c2=S)c1` [Compound 6i, 2-(4-Amino-(3-pyridin-4-yl)-5-thioxo-4,5-dihydro-1H[1,2,4]triazol-1-yl)-N-(3-methylphenyl)acetamide], for which the melting point fell in the range of 225 to 227 °C. Also, in data set [1], the pIC50 was 6.92. This molecule registered an MIC in data set [2] (Mycobacterium tuberculosis) of 0.39 µM (≈ 0.133 µg/mL).

As to `O=C(Cn1nc(-c2ccncc2)oc1=S)Nc1ncc([N+](=O)[O-])s1` [Compound 7e, N-(5-nitrothiazol-2-yl)-2-(5-(pyridin-4-yl)-2-thioxo-1,3,4-oxadiazol-3(2H)-yl)acetamide], the melting point lay within 254 to 256 °C. Also, the negative-log IC50 (pIC50) in data set [1] was 4.09. The same molecule came in with an MIC in data set [2] (Mycobacterium tuberculosis) of 100 µM (≈ 36.4 µg/mL).

`Nn1c(-c2ccncc2)nn(CC(=O)Nc2ccc(Cl)cc2)c1=S` [Compound 6f, 2-(4-Amino-(3-pyridin-4-yl)-5-thioxo-4,5-dihydro-1H[1,2,4]triazol-1-yl)-N-(4-chlorophenyl) acetamide] came in with a melting point of 218 to 220 °C. Besides, the pIC50 in data set [1] (setting [3]) is 5.92. The lowest concentration to inhibit growth in data set [2] (Mycobacterium tuberculosis) (MIC) was 12.5 µM (≈ 4.51 µg/mL).

`Cc1ccc(NC(=O)Cn2nc(-c3ccncc3)n(N)c2=S)cc1Cl` [Compound 6h, 2-(4-Amino-(3-pyridin-4-yl)-5-thioxo-4,5-dihydro-1H[1,2,4]triazol-1-yl)-N-(3-chloro-4-methylphenyl) acetamide] displayed a melting point of 214 to 216 °C. Moreover, the pIC50 in data set [1] (setting [3]) was 6.47. In addition, the MIC in data set [2] (Mycobacterium tuberculosis) came out at 6.25 µM (≈ 2.34 µg/mL).

`Nn1c(-c2ccncc2)nn(CC(=O)Nc2cccc(Cl)c2)c1=S` [Compound 6j, 2-(4-Amino-(3-pyridin-4-yl)-5-thioxo-4,5-dihydro-1H[1,2,4]triazol-1-yl)-N-(3-chlorophenyl) acetamide] yielded a melting point of 220 to 222 °C. In addition, the pIC50 in data set [1] (setting [3]) is 5.51. In addition, the lowest concentration to inhibit growth in data set [2] (Mycobacterium tuberculosis) (MIC) was 6.25 µM (≈ 2.26 µg/mL).

For the molecule `Cc1ccc(NC(=O)Cn2nc(-c3ccncc3)n(N)c2=S)cc1C` [Compound 6g, 2-(4-Amino-(3-pyridin-4-yl)-5-thioxo-4,5-dihydro-1H[1,2,4]triazol-1-yl)-N-(3,4-dimethylphenyl) acetamide], the melting point was 242 to 244 °C. For the same molecule, in data set [1] (setting [3]), the pIC50 is 6.72. This molecule also showed an MIC in data set [2] (Mycobacterium tuberculosis) of 0.39 µM (≈ 0.138 µg/mL).

The molecule `Nn1c(-c2ccncc2)nn(CC(=O)Nc2ccccn2)c1=S` [Compound 6o, 2-(4-Amino-(3-pyridin-4-yl)-5-thioxo-4,5-dihydro-1H[1,2,4]triazol-1-yl)-N-pyridin-2-yl acetamide] had a melting point of 212 to 214 °C. In data set [1] (setting [3]), the pIC50 was 4.12. The molecule further displayed an MIC in data set [2] (Mycobacterium tuberculosis) of 100 µM (≈ 32.7 µg/mL).

Molecule `Cc1ccc(NC(=O)Cn2nc(-c3ccncc3)n(N)c2=S)cc1` [Compound 6b, 2-(4-amino-3-(pyridin-4-yl)-5-thioxo-4,5-dihydro-1H-1,2,4-triazol-1-yl)-N-(p-tolyl)acetamide] yielded a melting point of 237 to 238 °C. In data set [1], the pIC50 was 7.05. Besides, the MIC in data set [2] (Mycobacterium tuberculosis) came out at 0.19 µM (≈ 0.0647 µg/mL). The molecule also came in with an MIC in data set [2] of 0.19 µM (≈ 0.0647 µg/mL).

Consider `Cc1cnc(NC(=O)Cn2nc(-c3ccncc3)oc2=S)s1` [Compound 7d, N-(5-methylthiazol-2-yl)-2-(5-(pyridin-4-yl)-2-thioxo-1,3,4-oxadiazol-3(2H)-yl)acetamide], for which the melting point was in the range of 236 to 238 °C. The same molecule had a pIC50 in data set [1] of 4.17. This molecule came in with an MIC in data set [2] (Mycobacterium tuberculosis) of 100 µM (≈ 33.3 µg/mL).

What is called melting point is the temperature of the solid-liquid transition. One may read the pIC50 as −log10 of the IC50, conventionally taken in molar units. As a reminder, the MIC is the least concentration at which growth counts as inhibited. High values mean weaker potency, low ones greater potency.

Source of the values: PMC7059037, “Development of 1,2,4-Triazole-5-Thione Derivatives as Potential Inhibitors of Enoyl Acyl Carrier Protein Reductase (InhA) in Tuberculosis” (Iranian Journal of Pharmaceutical Research : IJPR, 2019).
